Experimental data published in patent US20160052898A1, “NOVEL COMPOUNDS” (BAYER PHARMA AKTIENGESELLSCHAFT, priority 2013, published 2016).
Counter-ions that a name gives are not always drawn.

How the values were obtained:
[1] = tested on: constitutive active colorectal cancer cell (CRC) Wnt pathway; experiment: HCT116 Super TopFlash cellular reporter assay (constitutive active Wnt pathway); format: cell-based; conditions: Homo sapiens, HCT-116, 36 h, HCT116 TOP reporter cells, luciferase expression, 36 hours incubation, 50 μM to 15 nM
Method: In order to discover and characterize small molecules which inhibit the constitutive active colorectal cancer cell (CRC) Wnt pathway, a cellular reporter assay was employed. The corresponding assay cell was generated by transfection of the colorectal cancer cell line HCT116 (ATCC, #CCL-247) with the Super TopFlash vector (Morin, Science 275, 1997, 1787-1790; Molenaar et al., Cell 86 (3), 1996, 391-399). The HCT116 cell line is cultivated at 37° C. and 5% CO2 in DMEM/F-12 (Life Technologies, #11320-074), supplemented with 2 mM glutamine, 20 mM HEPES, 1.4 mM pyruvate, 0.15% Na-bicarbonate and 10% foetal bovine serum (GIBCO, #10270), this cancer cell line is pathophysiological relevant since it carries a deletion of position S45 in the β-catenin gene, leading to constitutive active Wnt signaling. Stable transfectants were generated by cotransfection with pcDNA3 and selection of stable transfected cells with 1 mg/ml G418.
(§1) In a parallel approach, HCT116 cells were cotransfected with the FOP control vector and pcDNA3. The FOP vector is identical to the TOP construct, but it contains instead of functional TCF elements a randomized, non-functional sequence. For this transfection a stable transfected cell line was generated as well.
(§2) In preparation of the assay, the two cell lines were plated 24 hrs before at 10000 cells per well of a 384 micro titre plate (MTP) in 30 μL growth medium. Selective inhibitory activity for small molecules on the mutated Wnt pathway was determined after parallel incubation of both (TOP and FOP) HCT116 reporter cell lines with a compound dilution series from 50 μM to 15 nM in steps of 3.16-fold dilutions in CAFTY buffer (130 mM NaCl, 5 mM KCl, 20 mM HEPES, 1 mM MgCl2, 5 mM NaHCO3, pH 7.4) containing 2 mM Ca^2+ and 0.01% BSA. The compounds were thereby serially prediluted in 100% DMSO and thereafter in addition 50 fold into the CAFTY compound dilution buffer (described above). From this dilution 10 μL were added to the cells in 30 μL growth medium and incubated for 36 hours at 37° C. and 5% CO2. Thereafter luciferase assay buffer (1:1 mixture of luciferase substrate buffer (20 mM Tricine, 2.67 mM MgSO4, 0.1 mM EDTA, 4 mM DTT, 270 μM Coenzyme A, 470 μM Luciferin, 530 μM ATP, ph adjusted to pH 7.8 with a sufficient volume of 5M NaOH) and Triton buffer (30 mL Triton X-100, 115 mL glycerol, 308 mg Dithiothreitol, 4.45 g Na2HPO4.2 H2O, 3.03 g Tris.HCL, ad 1 l H20, pH 7.8) was added as equal volume to the compound solution on the cells to determine luciferase expression as a measure of Wnt signaling activity in a luminometer.

[2] = tested on: HCT116 FOP control reporter cell line; experiment: HCT116 FOP control vector reporter assay (non-functional TCF elements); format: cell-based; conditions: Homo sapiens, HCT-116, 36 h, HCT116 FOP control reporter cells, luciferase expression, 36 hours incubation, 50 μM to 15 nM; read-out: HCT116 FOPFlash IC50
Method: as §1, §2

Work on `C[C@H](C(=O)Nc1cc(NC(=O)c2ccc(-c3ccccc3)cc2)ccc1OC(F)(F)F)N1CC2CCC(C1)O2` [Example 60, N-[3-{[(2R)-2-(8-oxa-3-azabicyclo[3.2.1]oct-3-yl)propanoyl]amino}-4-(trifluoromethoxy)phenyl]biphenyl-4-carboxamide] yielded an IC50 [1] of 0.582 µM and an IC50 [2] of no less than 50 µM.

In the case of `C[C@H](C(=O)Nc1cc(NC(=O)c2ccc(-c3ccccc3)cc2)ccc1OC(F)(F)F)N1CCOCC1` [Example 63, N-[3-{[(2R)-2-(morpholin-4-yl)propanoyl]amino}-4-(trifluoromethoxy)phenyl]biphenyl-4-carboxamide], the IC50 [1] is reported as 0.265 µM and the IC50 [2] is reported as no less than 50 µM.

Work on `COc1ccc(NC(=O)c2ccc(-c3ccccc3)cc2)cc1N(Cc1ccccc1)C(=O)CN1CCOCC1` [Example 64, N-{3-[benzyl(morpholin-4-ylacetyl)amino]-4-methoxyphenyl}biphenyl-4-carboxamide] yielded an IC50 [1] of 3.5 µM and an IC50 [2] of 48 µM.

For `COc1ccc(NC(=O)c2ccc(-c3ccccc3)cc2)cc1N(C)C(=O)CN1CCOCC1` [Example 65, N-{4-methoxy-3-[methyl(morpholin-4-ylacetyl)amino]phenyl}biphenyl-4-carboxamide], the IC50 [1] was 2.2 µM and the IC50 [2] was 28 µM.

With `CC(C)(C)c1ccc(NC(=O)c2ccc(-c3ccccc3)cc2)cc1NC(=O)CN1CCOCC1` [Example 67, N-{4-tert-butyl-3-[(morpholin-4-ylacetyl)amino]phenyl}biphenyl-4-carboxamide] the IC50 [1] was 0.21 µM and the IC50 [2] was 9.8 µM.

Compound `O=C(CN1CCOCC1)Nc1cc(NC(=O)c2ccc(-c3ccccc3)cc2)ccc1Br` [Example 68, N-{4-bromo-3-[(morpholin-4-ylacetyl)amino]phenyl}biphenyl-4-carboxamide] has an IC50 [1] of 0.513 µM and an IC50 [2] of no less than 50 µM.

In the case of `O=C(CN1CCOCC1)Nc1cc(NC(=O)c2ccc(-c3ccccc3)cc2)ccc1Cl` [Example 69, N-{4-chloro-3-[(morpholin-4-ylacetyl)amino]phenyl}biphenyl-4-carboxamide], the IC50 [1] is reported as 0.81 µM and the IC50 [2] is reported as 9.3 µM.

Compound `Cc1ccc(NC(=O)c2ccc(-c3ccccc3)cc2)cc1NC(=O)CN1CCOCC1` [Example 70, N-{4-methyl-3-[(morpholin-4-ylacetyl)amino]phenyl}biphenyl-4-carboxamide] has an IC50 [1] of 1.35 µM and an IC50 [2] of no less than 50 µM.

`COC(=O)c1cccc(-c2ccc(C(=O)Nc3ccc(OC)c(NC(=O)CN4CCOCC4)c3)cc2)c1` [Example 77, methyl 4′-({4-methoxy-3-[(morpholin-4-ylacetyl)amino]phenyl}carbamoyl)biphenyl-3-carboxylate] was tested, and the IC50 [1] was 3.95 µM and the IC50 [2] was no less than 50 µM.

Compound `COc1ccc(NC(=O)c2ccc(-c3cccc(C(F)(F)F)c3)cc2)cc1NC(=O)CN1CCOCC1` [Example 78, N-{4-methoxy-3-[(morpholin-4-ylacetyl)amino]phenyl}-3′-(trifluoromethyl)biphenyl-4-carboxamide] has an IC50 [1] of 2.9 µM and an IC50 [2] of no less than 50 µM.

`O=C(CN1CCOCC1)Nc1cc(NC(=O)c2ccc(-c3ccccc3)cc2)ccc1O` [Example 84, N-{4-hydroxy-3-[(morpholin-4-ylacetyl)amino]phenyl}biphenyl-4-carboxamide] was tested, and the IC50 [1] was 2.03 µM and the IC50 [2] was no less than 50 µM.

For `COCCCOCc1ccc(C(=O)Nc2ccc(-c3ccccc3)cc2)cc1NC(=O)CN1CCOCC1` [Example 87, N-(biphenyl-4-yl)-4-[(3-methoxypropoxy)methyl]-3-[(morpholin-4-ylacetyl)amino]benzamide], the IC50 [1] was 0.196 µM and the IC50 [2] was 34 µM.

Compound `NCCCOc1ccc(C(=O)Nc2ccc(-c3ccccc3)cc2)cc1NC(=O)C1(N2CCOCC2)CC1` [Example 89, 4-(3-aminopropoxy)-N-(biphenyl-4-yl)-3-({[1-(morpholin-4-yl)cyclopropyl]carbonyl}amino)benzamide hydrochloride (1:1)] has an IC50 [1] of 0.676 µM and an IC50 [2] of 20.2 µM.

`COCCCOc1ccc(C(=O)Nc2ccc(-c3ccccc3)cc2)cc1NC(=O)CN1CCOCC1` [Example 91, N-(biphenyl-4-yl)-4-(3-methoxypropoxy)-3-[(morpholin-4-ylacetyl)amino]benzamide] was tested, and the IC50 [1] was 0.262 µM and the IC50 [2] was no less than 50 µM.

`COCCOc1ccc(C(=O)Nc2ccc(-c3ccccc3)cc2)cc1NC(=O)CN1CCOCC1` [Example 92, N-(biphenyl-4-yl)-4-(2-methoxyethoxy)-3-[(morpholin-4-ylacetyl)amino]benzamide] was tested, and the IC50 [1] was 0.448 µM and the IC50 [2] was no less than 50 µM.

With `O=C(CN1CCOCC1)Nc1cc(C(=O)Nc2ccc(-c3ccccc3)cc2)ccc1OCCO` [Example 93, N-(biphenyl-4-yl)-4-(2-hydroxyethoxy)-3-[(morpholin-4-ylacetyl)amino]benzamide] the IC50 [1] was 0.194 µM and the IC50 [2] was no less than 50 µM.

For `CCC(C(=O)Nc1cc(C(=O)Nc2ccc(-c3ccccc3)cc2)ccc1OC)N1CCOCC1` (stereo not drawn) [Example 99, N-(biphenyl-4-yl)-4-methoxy-3-{[2-(morpholin-4-yl)butanoyl]amino}benzamide], the IC50 [1] was 0.38 µM and the IC50 [2] was no less than 50 µM.

In the case of `O=C(CN1CCOCC1)Nc1cc(C(=O)Nc2ccc(-c3ccccc3)cc2)ccc1C(=O)NCCCN1CCCC1` [Example 103, N^4-(biphenyl-4-yl)-2-[(morpholin-4-ylacetyl)amino]-N-[3-(pyrrolidin-1-yl)propyl]terephthalamide], the IC50 [1] is reported as 0.302 µM and the IC50 [2] is reported as 7.4 µM.

`CN(C)CCCNC(=O)c1ccc(C(=O)Nc2ccc(-c3ccccc3)cc2)cc1NC(=O)CN1CCOCC1` [Example 104, N^4-(biphenyl-4-yl)-N^1-[3-(dimethylamino)propyl]-2-[(morpholin-4-ylacetyl)amino]terephthalamide] showed an IC50 [1] of 0.534 µM and an IC50 [2] of 7.4 µM.

`CN(C)CCNC(=O)c1ccc(C(=O)Nc2ccc(-c3ccccc3)cc2)cc1NC(=O)CN1CCOCC1` [Example 105, formic acid —N^4-(biphenyl-4-yl)-N^1-[2-(dimethylamino)ethyl]-2-[(morpholin-4-ylacetyl)amino]terephthalamide (1:1)] was tested, and the IC50 [1] was 0.552 µM and the IC50 [2] was 7.8 µM.

`C[S+]([O-])c1ccc(C(=O)Nc2ccc(-c3ccccc3)cc2)cc1NC(=O)CN1CCOCC1` (stereo not drawn) [Example 110, N-(biphenyl-4-yl)-4-(methylsulfinyl)-3-[(morpholin-4-ylacetyl)amino]benzamide] was tested, and the IC50 [1] was 0.366 µM and the IC50 [2] was 6.5 µM.

In the case of `CS(=O)(=O)c1ccc(C(=O)Nc2ccc(-c3ccccc3)cc2)cc1NC(=O)CN1CCOCC1` [Example 111, N-(biphenyl-4-yl)-4-(methylsulfonyl)-3-[(morpholin-4-ylacetyl)amino]benzamide], the IC50 [1] is reported as 0.162 µM and the IC50 [2] is reported as no less than 50 µM.

`O=C(Nc1ccc(-c2ccccc2)cc1)c1ccc(OC2CC2)c(NC(=O)C2(N3CCOCC3)CC2)c1` [Example 113, N-(biphenyl-4-yl)-4-(cyclopropyloxy)-3-({[1-(morpholin-4-yl)cyclopropyl]carbonyl}amino)benzamide] showed an IC50 [1] of 0.159 µM and an IC50 [2] of no less than 50 µM.

`NC(=O)c1ccc(C(=O)Nc2ccc(-c3ccccc3)cc2)cc1NC(=O)CN1CCOCC1` [Example 116, N^4-(Biphenyl-4-yl)-2-[(morpholin-4-ylacetyl)amino]terephthalamide] showed an IC50 [1] of 0.132 µM and an IC50 [2] of no less than 50 µM.

With `CC(C)(O)c1ccc(C(=O)Nc2ccc(-c3ccccc3)cc2)cc1NC(=O)CN1CCOCC1` [Example 117, N-(biphenyl-4-yl)-4-(2-hydroxypropan-2-yl)-3-[(morpholin-4-ylacetyl)amino]benzamide] the IC50 [1] was 0.153 µM and the IC50 [2] was no less than 50 µM.

In the case of `COc1ccc(NC(=O)c2ccc(-c3ccc(NC(C)=O)cc3)cc2)cc1NC(=O)CN1CCOCC1` [Example 118, 4′-acetamido-N-{4-methoxy-3-[(morpholin-4-ylacetyl)amino]phenyl}biphenyl-4-carboxamide], the IC50 [1] is reported as 0.96 µM and the IC50 [2] is reported as no less than 50 µM.

`CNc1ccc(-c2ccc(C(=O)Nc3ccc(OC)c(NC(=O)CN4CCOCC4)c3)cc2)cc1` [Example 119, N-{4-methoxy-3-[(morpholin-4-ylacetyl)amino]phenyl}-4′-(methylamino)biphenyl-4-carboxamide] showed an IC50 [1] of 0.26 µM and an IC50 [2] of no less than 50 µM.
